Like-named read-outs stand apart in the source and are kept apart here.
Columns and labels:
[1] = system: barnyard grass Echinochloa crusgalli; experiment: Petri dish culture, growth inhibition of root and stalk of barnyard grass; type: in vivo; conditions: 5 days; for inhibition at 1 µg/mL / inhibition at 10 µg/mL: Echinochloa crus-galli, 120 h
Experimental: (§1) The synthesized compounds were tested for the herbicidal activity on model plants including a monocotyledon (barnyard grass) and a dicotyledon (rape) by the reported Petri dish culture method. The percent inhibitory ratios against the growth of root and stalk of barnyard grass and rape at different dosage concentrations were calculated, and the compounds with appreciable inhibitory potencies are selected and shown in Table 1 and Table 2. Several features of the inhibitory activities can be derived. First, all the compounds have stronger inhibition against the growth of the dicotyledon rape than against the monocotyledon barnyard grass, showing appreciable selectivity.
(§2) The herbicidal activity was examined for the growth inhibition effect of the dicotyledon rape Brassica napus and the monocotyledon barnyard grass Echinochloa crusgalli, using the standard Petri dish test and the pre-emergence treatment procedure. […] Nine mL of the solution was added in a Petri dish of 9 cm diameter and two pieces of filter paper were placed on the dish bottom. Twenty seeds each of rape and barnyard grass were placed on the filter paper. The covered Petri dish was transferred into an artificial climate incubator (MGC-400H, Shantou Keyi Co., Ltd., China), where the conditions were controlled at temperature 23 ± 1 °C, humidity 60 ± 5%, light intensity 10 Klux, and photoperiod 12 h/day. The incubation was continued for 5 days, then the lengths of 10 roots and 10 stems for each type of plant were measured and the mean values were calculated. The percent inhibitory ratios were calculated relative to control plants exposing to distilled water instead of the compound solution.

rape Brassica napus [2] = experiment: Petri dish culture, growth inhibition of root and stalk of rape; type: in vivo; conditions: 5 days; for inhibition at 1 µg/mL / inhibition at 10 µg/mL: Brassica napus, 120 h
Experimental: as §1, §2

rape Brassica napus [3] = experiment: Concentration-dependent root elongation inhibition of rape (IC50); type: in vivo
Experimental: Several representative compounds selected from the 2-phenoxy-4H-3,1-benzoxazin-4-one and 2-phenoxy-3H-quinazolin-4-one groups were tested their concentration dependant activities and the half maximal inhibitory concentrations (IC50 values) are shown in Table 3. Obviously, the 2-phenoxy-4H-3,1-benzoxazin-4-ones 3m and 3o have IC50 values near to that of the commercial herbicidal 2,4-D. More importantly, these molecules consist of 2-phenoxymethyl group with halo substituents both at the 2- and 4- positions of the benzene ring, a similar pattern to the commercial hormone herbicides 2,4-D, clomeprop, and 2,4-DB, as well as the ACCase herbicide diclofop-methyl. […] Moreover, if no halo group exists on the benzene ring, the activity will decrease dramatically. On the other hand, the substructure 4H-3,1-benzoxazin-4-one in this work and the carboxylic group in the commercial phenoxyethanoic and phenoxypropionic acid herbicides play also a crucial role in the contribution to the activities of the compounds, meaning they are active substructures.
The herbicidal activity was examined for the growth inhibition effect of the dicotyledon rape Brassica napus and the monocotyledon barnyard grass Echinochloa crusgalli, using the standard Petri dish test and the pre-emergence treatment procedure. Briefly, the compounds to be tested were dissolved in DMF and emulsified with Tween 80, and the solutions were diluted with water to the concentrations of […], respectively. Nine mL of the solution was added in a Petri dish of 9 cm diameter and two pieces of filter paper were placed on the dish bottom. Twenty seeds each of rape and barnyard grass were placed on the filter paper. The covered Petri dish was transferred into an artificial climate incubator (MGC-400H, Shantou Keyi Co., Ltd., China), where the conditions were controlled at temperature 23 ± 1 °C, humidity 60 ± 5%, light intensity 10 Klux, and photoperiod 12 h/day. The incubation was continued for 5 days, then the lengths of 10 roots and 10 stems for each type of plant were measured and the mean values were calculated. The percent inhibitory ratios were calculated relative to control plants exposing to distilled water instead of the compound solution.

[4] = 1 mg/L, root growth, read-out: Relative inhibition, root
[5] = 1 mg/L, stalk growth, read-out: Relative inhibition, stalk
[6] = 10 mg/L, root growth, read-out: Relative inhibition, root
[7] = 10 mg/L, stalk growth, read-out: Relative inhibition, stalk
[8] = Brassica napus, rape root elongation, Table 3, read-out: IC50 for the root elongation inhibition of rape

Compound | melting point [°C] | inhibition at 1 µg/mL [1, 4] [%] | inhibition at 1 µg/mL [1, 5] [%] | inhibition at 10 µg/mL [1, 6] [%] | inhibition at 10 µg/mL [1, 7] [%] | inhibition at 1 µg/mL (rape Brassica napus [2]; [4]) [%] | inhibition at 1 µg/mL (rape Brassica napus [2]; [5]) [%] | inhibition at 10 µg/mL (rape Brassica napus [2]; [6]) [%] | inhibition at 10 µg/mL (rape Brassica napus [2]; [7]) [%] | IC50 (rape Brassica napus [3]; [8]) [µM] | other results
3-Amino-7-chloro-2-((2,4-dichlorophenoxy)methyl)-3H-quinazolin-4-one [4i] | – | – | – | – | – | – | – | – | – | – | Relative inhibition, root ([1]; 1 mg/L, root growth): 24.3%; Relative inhibition, stalk ([1]; 1 mg/L, stalk growth): −7.2%; Relative inhibition, root ([1]; 10 mg/L, root growth): 68.5%; Relative inhibition, stalk ([1]; 10 mg/L, stalk growth): 38.1%; Relative inhibition, root (rape Brassica napus [2]; 1 mg/L, root growth): 93.6%; Relative inhibition, stalk (rape Brassica napus [2]; 1 mg/L, stalk growth): 92.3%; Relative inhibition, root (rape Brassica napus [2]; 10 mg/L, root growth): 98.2%; Relative inhibition, stalk (rape Brassica napus [2]; 10 mg/L, stalk growth): 95.7%; IC50 (rape Brassica napus [3]; rape root elongation, Table 3, read-out: IC50 for the root elongation inhibition of rape): 27.2 µM
CCOc1ccc(Cl)cc1Cl [2,4-dichlorophenyl ethyl ether, reference compound] | – | – | – | – | – | – | – | – | – | – | herbicidal activity (control experiment) (rape Brassica napus [3]; compound without the 4H-3,1-benzoxazin-4-one substructure, plant not stated): loses nearly all of its herbicidal activity
O=c1oc(COc2ccc(Cl)cc2)nc2ccccc12 [3g, 2-((4-Chlorophenoxy)methyl)-4H-3,1-benzoxazin-4-one] | 147.5 to 149.2 | 53.7 | -25.6 | 79.5 | -1.8 | 98 | 56.8 | 100 | 68 | 30.4 | –
O=c1oc(COc2ccc(Cl)cc2)nc2cccc(Cl)c12 [3h, 5-Chloro-2-((4-chlorophenoxy)methyl)-4H-3,1-benzoxazin-4-one] | 144.3 to 145.7 | 59.8 | 14.7 | 88.7 | 41.9 | 96.3 | 62 | 100 | 91.7 | 138 | –
O=c1oc(COc2ccc(Cl)cc2)nc2ccc(Cl)cc12 [3i, 6-Chloro-2-((4-chlorophenoxy)methyl)-4H-3,1-benzoxazin-4-one] | 153.2 to 154.6 | 55.3 | -7.3 | 87.8 | 13.2 | 91.4 | 40.2 | 100 | 82.1 | 22.3 | –
COc1cc2nc(COc3ccc(Cl)cc3)oc(=O)c2cc1OC [3l, 2-((4-Chlorophenoxy)methyl)-6,7-dimethoxy-4H-3,1-benzoxazin-4-one] | 118.5 to 119.3 | 65.5 | 12.8 | 78.7 | 22 | 96.3 | 74.5 | 100 | 83.4 | 80.1 | –
O=c1oc(COc2ccc(Cl)cc2Cl)nc2ccccc12 [3m, 2-((2,4-Dichlorophenoxy)methyl)-4H-3,1-benzoxazin-4-one] | 118.5 to 119.3 | 38.3 | -22.7 | 100 | -0.6 | 96.3 | 77.7 | 100 | 93.8 | 10.3 | –
O=c1oc(COc2ccc(Cl)cc2Cl)nc2cccc(Cl)c12 [3n, 5-Chloro-2-((2,4-dichlorophenoxy)methyl)-4H-benzo[3,1]oxazin-4-one] | 161.9 to 163.2 | 44.4 | 12.8 | 57.5 | -1.9 | 80.5 | 38.7 | 79.2 | 45.9 | 43.5 | –
O=c1oc(COc2ccc(Cl)cc2Cl)nc2ccc(Cl)cc12 [3o, 6-Chloro-2-((2,4-dichlorophenoxy)methyl)-4H-3,1-benzoxazin-4-one] | 157.9 to 160.1 | 73.6 | -29.1 | 89.4 | 14.5 | 93.7 | 66.2 | 100 | 91.4 | 10.7 | IC50 (rape Brassica napus [3]; Brassica napus, rape root growth, read-out: IC50, inhibitory efficacy against the rape root growth): 0.0104 µM
O=c1oc(COc2ccc(Cl)cc2Cl)nc2cc(Cl)ccc12 [3p, 7-Chloro-2-((2,4-dichlorophenoxy)methyl)-4H-3,1-benzoxazin-4-one] | 139.6 to 142.5 | 64.3 | 5.9 | 100 | -14.4 | 98 | 82.3 | 100 | 91.4 | 11.1 | –
COc1cc2nc(COc3ccc(Cl)cc3Cl)oc(=O)c2cc1OC [3q, 2-((2,4-Dichlorophenoxy)methyl)-6,7-dimethoxy-4H-3,1-benzoxazin-4-one] | 161.9 to 163.2 | 35.5 | -7.4 | 51.9 | -52.8 | 58.3 | 14.8 | 100 | 85.2 | 142 | –
Nn1c(COc2ccc(Cl)cc2Cl)nc2ccccc2c1=O [4f, 3-Amino-2-((2,4-dichlorophenoxy)methyl)-3H-quinazolin-4-one] | 214.6 to 215.7 | 35 | -5 | 22.2 | -6.6 | 65.6 | 48.1 | 73.4 | 48.1 | 224 | –
COc1cc2nc(COc3ccc(Cl)cc3Cl)n(N)c(=O)c2cc1OC [4j, 3-Amino-2-((2,4-dichlorophenoxy)methyl)-6,7-dimethoxy-3H-quinazolin-4-one] | 272.3 to 273.1 | 7.7 | 8.3 | 60 | 5 | 58.4 | 40.2 | 84.9 | 67.2 | 168 | –
Cn1c(COc2ccc(Cl)cc2)nc2cccc(Cl)c2c1=O [4k, 5-Chloro-2-((4-chlorophenoxy)methyl)-3-methyl-3H-quinazolin-4-one] | 184.9 to 185.7 | 32.2 | 7.5 | 50.9 | 1.5 | 48.8 | 21.6 | 81.9 | 52.9 | 201 | –
COc1cc2nc(COc3ccc(Cl)cc3Cl)n(C)c(=O)c2cc1OC [4s, 2-((2,4-Dichlorophenoxy)methyl)-6,7-dimethoxy-3-methyl-3H-quinazolin-4-one] | 243.9 to 245.2 | 30 | -20.3 | 52.2 | -54.5 | 7.1 | 8.1 | 20.7 | 20.3 | – | –
